Results as given in patent US5110927A (The United States of America as represented by the …, priority 1987, dated 1992).
Entries after “also recorded” stand apart in the source; their conditions may differ.

What was measured:
[1] = system: alpha1-adrenoceptors and other receptors; conditions: prior art, cited from earlier work
[2] = molecular target: α1-adrenoceptor (3H-prazosin binding sites); test: irreversibility experiment: membranes preincubated with compound, washed, assayed for saturation of 3H-prazosin binding; parameters: species or system rat; conditions: for irreversible blockade / effect on 3H-prazosin binding sites (in words): membranes, preincubation and washing
[3] = system: spontaneously hypertensive rats; conditions: conscious; previously shown; cited from earlier work
[4] = molecular target: α1-adrenoceptor (3H-prazosin binding sites); test: displacement of 3H-prazosin from rat cerebral cortical (brain) membranes; conditions: for -logIC50: 3H-prazosin displacement, rat cerebral cortical membranes; for affinity to alpha1-adrenoceptors (in words): discussion of Table 1
Description: IC50 values and apparent Ki values were determined as in Table 1.
Rat brain cortices were homogenized in approximately 30 volumes/wet weight of 50 mM Tris buffer, pH 7.4, containing 10 mM MgCl2 by use of a Polytron (setting 6 for 10 seconds). It should be noted that this buffer was used throughout the experimental procedures. The homogenate was centrifuged at 48,000×g for 10 minutes in a Sorvall RC-5B centrifuge. The resulting pellet was resuspended in buffer by use of a Polytron and recentrifuged. This process was repeated and the pellet was resuspended in approximately 200 volumes for affinity studies or 20 volumes for irreversibility experiments.
Specific binding was defined as the difference between total binding (measured in the absence of any ligand) and non-specific binding (measured in the presence of 10 microM phentolamine). Duplicate tubes were used for each condition. Reaction tubes were incubated for 30 minutes at 30° C., then diluted to 5 ml with ice cold buffer, and filtered under reduced pressure through Whatman GF/C glass fiber filters. The reaction tubes and filters were washed three additional times with buffer.

In the case of CC(COc1ccccc1)N(CCCl)Cc1ccccc1 (stereo not shown) [phenoxybenzamine, reference compound], the “receptor specificity (in words)” value [1] is given as “not very specific”, the “Kd (KD) of remaining 3H-prazosin binding sites (in words)” value ([2]; after preincubation and washing) is given as “without significant Kd changes in the remaining sites” and the “blockade of 3H-prazosin binding sites by phenoxybenzamine” value ([2]; brain membranes, FIG. 4) is given as “approximately 85%”. For the same compound, the “irreversible blockade / effect on 3H-prazosin binding sites (in words)” value (“irreversible blockade / effect” below) [2] was “block almost all ^3 -prazosin binding sites in brain membranes”.

For CCOC(=O)N1c2ccccc2C=CC1OCC (stereo not shown) [N-ethoxycarbonyl-2-ethoxy-1,2-dihydroquinoline], the “concentration required relative to more specific chemoreactive labels” value ([1]; factor higher) is listed as “about 10^4” and the “receptor specificity (in words)” value [1] is listed as “receptor specificity of N-ethoxycarbonyl-2-ethoxy-1,2-dihydroquinoline is also low”.

In the case of c1c[nH]c(CNCCCCCCNCCSSCCNCCCCCCNCc2ccc[nH]2)c1 [pyrextramine], the “receptor specificity (in words)” value [1] is listed as “block peripheral alpha2 -adrenergic responses as well”.

For COc1cc2nc(N3CCN(C(=O)/C=C/c4ccccc4)CC3)nc(N)c2cc1OC [Compound 9], the “reduction of blood pressure in spontaneously hypertensive rats” value [3] is given as “capable of reducing blood pressure”, the “irreversible blockade / effect” value [2] is given as “do not attach irreversibly to the receptor” and the “-logIC50” value [4] is given as 9.16.

With C/C=C/C=C/C(=O)N1CCN(c2nc(N)c3cc(OC)c(OC)cc3n2)CC1 [Compound 6] the “irreversible blockade / effect” value [2] was “did not irreversibly block alpha1 -adrenoceptors; also recorded: do not attach irreversibly to the receptor”, the “-logIC50” value [4] was 8.81 and the “affinity to alpha1-adrenoceptors (in words)” value [4] was “high affinity”.

In the case of COc1cc2nc(N3CCN(C(=O)C4=CC5CCC4CC5)CC3)nc(N)c2cc1OC [Compound 48], the “overall behaviour compared with compound 47” value [2] is reported as “behaves similarly to 47 in those aspects which were investigated” and the “-logIC50” value [4] is reported as 8.4.

In the case of COc1cc2nc(N3CCN(C(=S)Nc4ccc(N=[N+]=[N-])cc4)CC3)nc(N)c2cc1OC [Compound 33], the “-logIC50” value [4] is reported as 7.70 and the “affinity to alpha1-adrenoceptors (in words)” value [4] is reported as “decrease”.

For COC(=O)/C=C/C=C/C(=O)N1CCN(c2nc(N)c3cc(OC)c(OC)cc3n2)CC1 [Compound 5], the “-logIC50” value [4] was 8.01.

In the case of COc1cc2nc(N3CCN(C(=S)Nc4ccc(NC(=S)N5CC5)cc4)CC3)nc(N)c2cc1OC [Compound 36], the “-logIC50” value [4] is reported as 7.01.
